Read-outs that look alike come from different tables or passages of the source.
What was measured:
DoHH2 = assay: CellTiter-Glo proliferation/viability assay; type: cell-based, human; conditions: Homo sapiens, read-out: DoHH2 EC50
Ramos = assay: CellTiter-Glo proliferation/viability assay; type: cell-based, human
Lyn [1] = target: T1, Lyn (Homo sapiens (Human), UniProt P07948); conditions: read-out: Lyn IC50
Src [2] = target: T2, Src (Homo sapiens (Human), UniProt P12931); assay: biochemical
BTK = BTK (Homo sapiens (Human), UniProt Q06187)
Sequence of BTK (Q06187 whole entry): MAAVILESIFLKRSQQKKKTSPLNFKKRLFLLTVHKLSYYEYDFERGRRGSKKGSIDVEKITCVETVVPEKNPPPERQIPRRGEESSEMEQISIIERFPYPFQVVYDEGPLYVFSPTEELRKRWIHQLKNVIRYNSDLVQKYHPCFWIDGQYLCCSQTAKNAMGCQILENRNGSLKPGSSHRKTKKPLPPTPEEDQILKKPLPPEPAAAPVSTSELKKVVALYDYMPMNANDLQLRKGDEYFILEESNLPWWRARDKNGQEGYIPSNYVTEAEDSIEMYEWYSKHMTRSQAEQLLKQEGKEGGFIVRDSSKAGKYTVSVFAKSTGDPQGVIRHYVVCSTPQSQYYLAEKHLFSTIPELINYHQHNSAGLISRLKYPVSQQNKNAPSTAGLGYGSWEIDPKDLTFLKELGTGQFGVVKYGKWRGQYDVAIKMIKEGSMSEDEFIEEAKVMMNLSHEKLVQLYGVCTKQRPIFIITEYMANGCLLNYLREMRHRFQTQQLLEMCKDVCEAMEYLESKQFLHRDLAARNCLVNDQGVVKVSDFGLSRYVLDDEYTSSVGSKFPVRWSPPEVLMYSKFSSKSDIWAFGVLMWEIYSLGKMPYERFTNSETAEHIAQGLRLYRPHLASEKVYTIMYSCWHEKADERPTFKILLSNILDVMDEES

Src [3] = target: T2, Src; conditions: read-out: Src IC50
Lyn [4] = target: T1, Lyn; assay: biochemical
[5] = Homo sapiens, Ramos; 48 hrs; read-out: Ramos EC50
[6] = Homo sapiens, Ramos, 48 h; read-out: Ramos EC50

T2 sequence (P12931 whole entry, looked up): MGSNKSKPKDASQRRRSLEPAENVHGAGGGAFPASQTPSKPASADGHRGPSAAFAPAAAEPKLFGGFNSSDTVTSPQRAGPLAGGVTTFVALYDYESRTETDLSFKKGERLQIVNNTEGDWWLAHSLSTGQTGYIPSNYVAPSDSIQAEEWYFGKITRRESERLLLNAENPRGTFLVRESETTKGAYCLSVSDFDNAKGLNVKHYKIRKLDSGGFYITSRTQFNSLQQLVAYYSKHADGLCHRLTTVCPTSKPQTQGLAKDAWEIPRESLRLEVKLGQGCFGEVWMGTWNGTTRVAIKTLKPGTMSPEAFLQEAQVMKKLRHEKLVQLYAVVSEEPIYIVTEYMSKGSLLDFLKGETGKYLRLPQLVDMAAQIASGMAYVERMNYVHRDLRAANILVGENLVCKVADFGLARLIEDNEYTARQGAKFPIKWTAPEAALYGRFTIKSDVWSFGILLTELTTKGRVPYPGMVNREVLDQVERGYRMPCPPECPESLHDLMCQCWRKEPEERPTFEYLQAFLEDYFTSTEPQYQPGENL
T1 sequence (P07948 whole entry): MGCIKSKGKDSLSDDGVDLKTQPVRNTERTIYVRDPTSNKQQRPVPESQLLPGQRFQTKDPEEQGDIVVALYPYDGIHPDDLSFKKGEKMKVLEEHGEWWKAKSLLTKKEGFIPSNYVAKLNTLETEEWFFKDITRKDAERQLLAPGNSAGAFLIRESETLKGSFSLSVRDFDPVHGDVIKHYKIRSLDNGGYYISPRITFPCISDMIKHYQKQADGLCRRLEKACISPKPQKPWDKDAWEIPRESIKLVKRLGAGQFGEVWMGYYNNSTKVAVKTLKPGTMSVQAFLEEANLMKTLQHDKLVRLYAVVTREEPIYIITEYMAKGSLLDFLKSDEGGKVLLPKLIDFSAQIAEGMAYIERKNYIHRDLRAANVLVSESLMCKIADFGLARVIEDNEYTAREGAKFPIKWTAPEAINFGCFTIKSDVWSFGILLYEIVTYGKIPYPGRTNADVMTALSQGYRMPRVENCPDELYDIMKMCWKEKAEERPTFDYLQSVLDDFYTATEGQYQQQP

| EC50 (Ramos; [5]) [µM] | IC50 (Lyn [1]) [µM] | IC50 (Src [2]) [µM] | IC50 (BTK) [µM] | IC50 (Src [3]) [µM] | IC50 (Lyn [4]) [µM] | IC50 (BTK; read-out: BTK IC50) [µM] | EC50 (Ramos; [6]) [µM] | Compound | EC50 (DoHH2; DOHH-2, 48 hrs) [µM] | EC50 (DoHH2; DOHH-2, 48 h) [µM] | EC50 (Ramos; Homo sapiens, Ramos, 48 h, read-out: Ramos EC50) [µM] |
| --- | --- | --- | --- | --- | --- | --- | --- | --- | --- | --- | --- |
| > 10 |  |  |  | > 5 | 1 to 5 | > 5 |  | CCn1c(=O)c(-c2nccs2)cc2cnc(Nc3ccc(C)cn3)cc21 [Compound 68] | 1 to 10 |  |  |
| > 10 | > 5 | 1 to 5 |  |  |  | > 5 |  | CCn1c(=O)c(C(C)=O)cc2cnc(Nc3ccc(C)cn3)cc21 [Compound 33] | > 10 |  |  |
|  |  |  |  | > 5 | 1 to 5 | > 5 | > 10 | CCn1c(=O)c(-c2cccc(C)c2)cc2cnc(Nc3ccc(C)cn3)cc21 [Compound 41, 1-ethyl-7-(5-methylpyridin-2-ylamino)-3-m-tolyl-1,6-naphthyridin-2(1H)-one] | > 10 |  |  |
| 1 to 10 |  |  | 1 to 5 | < 0.1 | 0.1 to 1 |  |  | CCN(CC)CCOc1ccc(Nc2cc3c(cn2)cc(-c2cccc(SC)c2)c(=O)n3CC)nc1 [Compound 105, 7-((5-(2-(diethylamino)ethoxy)pyridin-2-yl)amino)-1-ethyl-3-(3-(methylthio)phenyl)-1,6-naphthyridin-2(1H)-one] | 1 to 10 |  |  |
| 1 to 10 |  |  | 1 to 5 | < 0.1 | 0.1 to 1 |  |  | CCn1c(=O)c(-c2ccccc2)cc2cnc(Nc3ccnc(O)n3)cc21 [Compound 63, 1-Ethyl-7-(2-hydroxy-pyrimidin-4-ylamino)-3-phenyl-1H-[1,6]naphthyridin-2-one] | 1 to 10 |  |  |
| > 10 |  |  | 0.1 to 1 | > 5 | 1 to 5 |  |  | CCn1c(=O)c(C2CCC2)cc2cnc(Nc3ccc(C)cn3)cc21 [Compound 37, 3-Cyclobutyl-1-ethyl-7-(5-methyl-pyridin-2-ylamino)-1H-[1,6]naphthyridin-2-one] | > 10 |  |  |
|  | > 5 |  | 1 to 5 | > 5 |  |  | 1 to 10 | CCn1c(=O)c(C(C)C)cc2cnc(Nc3ccc(C)cn3)cc21 [Compound 13, 1-Ethyl-3-isopropyl-7-(5-methyl-pyridin-2-ylamino)-1H-[1,6]naphthyridin-2-one] | 1 to 10 |  |  |
| > 10 | > 5 |  |  | > 5 |  | > 5 |  | CCn1c(=O)c(-c2ccc(F)cc2)cc2cnc(Nc3ccc(C)cn3)cc21 [Compound 26] | > 10 |  |  |
|  | > 5 |  | 0.1 to 1 | > 5 |  |  | > 10 | CCn1c(=O)c(CC(C)C)cc2cnc(Nc3ccc(C)cn3)cc21 [Compound 20, 1-Ethyl-3-isobutyl-7-(5-methyl-pyridin-2-ylamino)-1H-[1,6]naphth yridin-2-one] | > 10 |  |  |
| > 10 | > 5 |  | 1 to 5 | > 5 |  |  |  | CCn1c(=O)c(-c2ccsc2)cc2cnc(Nc3ccc(C)cn3)cc21 [Compound 10, 1-Ethyl-7-(5-methyl-pyridin-2-ylamino)-3-thiophen-3-yl-1H-[1,6]naphthyridin-2-one] | > 10 |  |  |
| > 10 |  |  | 1 to 5 | < 0.1 | 0.1 to 1 |  |  | CCn1c(=O)c(-c2ccccc2Cl)cc2cnc(Nc3ccc(F)cn3)cc21 [Compound 71, 3-(2-chlorophenyl)-1-ethyl-7-(5-fluoropyridin-2-ylamino)-1,6-naphthyridin-2(1H)-one] | 1 to 10 |  |  |

Second part, the compound before the results:

| Compound | EC50 (Ramos; [5]) [µM] | IC50 (Lyn [1]) [µM] | IC50 (Src [2]) [µM] | IC50 (BTK) [µM] | IC50 (Src [3]) [µM] | IC50 (Lyn [4]) [µM] | IC50 (BTK; read-out: BTK IC50) [µM] | EC50 (Ramos; [6]) [µM] | EC50 (DoHH2; DOHH-2, 48 hrs) [µM] | EC50 (DoHH2; DOHH-2, 48 h) [µM] | EC50 (Ramos; Homo sapiens, Ramos, 48 h, read-out: Ramos EC50) [µM] |
| --- | --- | --- | --- | --- | --- | --- | --- | --- | --- | --- | --- |
| CCN(CC)CCOc1cnc(Nc2cc3c(cn2)cc(-c2ccccc2)c(=O)n3CC)nc1 [Compound 3, 7-[5-(2-Diethylamino-ethoxy)-pyrimidin-2-ylamino]-1-ethyl-3-phenyl-1H-[1,6]naphthyridin-2-one] | > 10 | > 5 | 1 to 5 | 1 to 5 |  |  |  |  | 1 to 10 |  |  |
| CCn1c(=O)c(-c2ccccc2)cc2cnc(Nc3ccc(C(=O)N4CCOCC4)cn3)cc21 [Compound 4, 1-Ethyl-7-[5-(morpholine-4-carbonyl)-pyridin-2-ylamino]-3-phenyl-1H-[1,6]naphthyridin-2-one] | < 1 | < 0.1 | 0.1 to 1 |  |  |  | > 5 |  | 1 to 10 |  |  |
| CCN(CC)CCOc1ccc(Nc2cc3c(cn2)cc(C(C)C)c(=O)n3C)nc1 [Compound 59, 7-[5-(2-Diethylamino-ethoxy)-pyridin-2-ylamino]-3-isopropyl-1-methyl-1H-[1,6]naphthyridin-2-one] | > 10 |  | 0.1 to 1 |  |  |  |  |  | 1 to 10 |  |  |
| CCN(CC)CCOc1ccc(Nc2cc3c(cn2)cc(-c2c(F)cc(Cl)cc2F)c(=O)n3CC)nc1 [Compound 98, 3-(4-chloro-2,6-difluorophenyl)-7-((5-(2-(diethylamino)ethoxy)pyridin-2-yl)amino)-1-ethyl-1,6-naphthyridin-2(1H)-one] | 1 to 10 |  |  |  | < 0.1 | 0.1 to 1 | < 0.1 |  | 1 to 10 |  |  |
| CCN(CC)CCOc1ccc(Nc2cc3c(cn2)cc(-c2cccnc2)c(=O)n3CC)nc1 [Compound 103, 7-((5-(2-(diethylamino)ethoxy)pyridin-2-yl)amino)-1-ethyl-3-(pyridin-3-yl)-1,6-naphthyridin-2(1H)-one] | > 10 |  |  |  | < 0.1 | 0.1 to 1 | > 5 |  | 1 to 10 |  |  |
| CCn1c(=O)c(C2CCCC2)cc2cnc(Nc3ccc(C)cn3)cc21 [Compound 31, 3-Cyclopentyl-1-ethyl-7-(5-methyl-pyridin-2-ylamino)-1H-[1,6]naphthayridin-2-one] |  | > 5 | 0.1 to 1 |  |  |  | > 5 | 1 to 10 | > 10 |  |  |
| CCN(CC)CCOc1ccc(Nc2cc3c(cn2)cc(C(C)C)c(=O)n3CCOC)nc1 [Compound 57, 7-[5-(2-Diethylamino-ethoxy)-pyridin-2-ylamino]-3-isopropyl-1-(2-methoxy-ethyl)-1H-[1,6]naphthyridin-2-one] | > 10 | > 5 | 0.1 to 1 | 1 to 5 |  |  |  |  | 1 to 10 |  |  |
| CCn1c(=O)c(-c2c(C)cc(F)cc2C)cc2cnc(Nc3ccc(N(C)C4CCN(C)CC4)cn3)cc21 [Compound 124, 1-ethyl-3-(4-fluoro-2,6-dimethylphenyl)-7-((5-(methyl(1-methylpiperidin-4-yl)amino)pyridin-2-yl)amino)-1,6-naphthyridin-2(1H)-one] | > 10 | < 0.1 |  |  | < 0.1 |  | < 0.1 |  | < 1 |  |  |
| CCn1c(=O)c(-c2cc(SC)ccc2F)cc2cnc(Nc3ccc(N(C)C4CCN(C)CC4)cn3)cc21 [Compound 116, 1-ethyl-3-(2-fluoro-5-(methylthio)phenyl)-7-((5-(methyl(1-methylpiperidin-4-yl)amino)pyridin-2-yl)amino)-1,6-naphthyridin-2(1H)-one] |  |  |  |  |  | < 0.1 |  |  |  | < 1 | 1 to 10 |
| O=c1c(-c2c(F)cccc2F)cc2cnc(Nc3ccc(F)cn3)cc2n1[C@H]1CCNC1 [Compound 149, (S)-3-(2,6-difluorophenyl)-7-((5-fluoropyridin-2-yl)amino)-1-(pyrrolidin-3-yl)-1,6-naphthyridin-2(1H)-one] | > 10 | > 5 | 1 to 5 |  |  |  |  |  | 1 to 10 |  |  |
| CCN(CC)CCOc1ccc(Nc2cc3c(cn2)cc(-c2ccccc2)c(=O)n3C)nc1 [Compound 15, 7-[5-(2-Diethylamino-ethoxy)-pyridin-2-ylamino]-1-methyl-3-phenyl-1H-[1,6]naphthyridin-2-one] | 1 to 10 |  |  |  | < 0.1 | 0.1 to 1 | < 0.1 |  | < 1 |  |  |
| CCN(CC)CCOc1ccc(Nc2cc3c(cn2)cc(-c2c(Cl)cccc2OC)c(=O)n3CC)nc1 [Compound 108, 3-(2-chloro-6-methoxyphenyl)-7-((5-(2-(diethylamino)ethoxy)pyridin-2-yl)amino)-1-ethyl-1,6-naphthyridin-2(1H)-one] | > 10 | < 0.1 |  |  | < 0.1 |  | < 0.1 |  | < 1 |  |  |
| CCN(CC)CCOc1ccc(Nc2cc3c(cn2)cc(-c2ccccc2)c(=O)n3C2CCCCC2)nc1 [Compound 74, 1-cyclohexyl-7-(5-(2-(diethylamino)ethoxy)pyridin-2-ylamino)-3-phenyl-1,6-naphthyridin-2(1H)-one] | 1 to 10 |  |  |  | < 0.1 | 1 to 5 |  |  | 1 to 10 |  |  |
| CCN(CC)CCOc1ccc(Nc2cc3c(cn2)cc(-c2ccccc2)c(=O)n3-c2ccncc2)nc1 [Compound 82, 7-[5-(2-Diethylamino-ethoxy)-pyridin-2-ylamino]-3-phenyl-1-pyridin-4-yl-1H-[1,6]naphthyridin-2-one] | > 10 | < 0.1 |  | 0.1 to 1 | < 0.1 |  |  |  | < 1 |  |  |
| CCN(CC)CCOc1ccc(Nc2cc3c(cn2)cc(-c2ccccc2Cl)c(=O)n3CC)nc1 [Compound 106, 3-(2-chlorophenyl)-7-((5-(2-(diethylamino)-ethoxy)pyridin-2-yl)amino)-1-ethyl-1,6-naphthyridin-2(1H)-one] | > 10 |  |  |  | > 5 | 0.1 to 1 | < 0.1 |  | < 1 |  |  |
| CCN(CC)CCOc1ccc(Nc2cc3c(cn2)cc(-c2c(F)ccc(Cl)c2F)c(=O)n3CC)nc1 [Compound 97, 3-(3-chloro-2,6-difluorophenyl)-7-((5-(2-(diethylamino)ethoxy)pyridin-2-yl)amino)-1-ethyl-1,6-naphthyridin-2(1H)-one] |  | < 0.1 |  | 0.1 to 1 | < 0.1 |  |  | 1 to 10 | < 1 |  |  |

From patent US9714247B2, “Multiple kinase pathway inhibitors” (Mannkind Corporation, priority 2012, dated 2017)
